The results in this text go back to patent publication US8618110B2, “Compositions and methods for apoptosis modulators” (VM Discovery Inc., priority 2007, dated 2013).

Experiment [1] deals with DU-145 (prostate) tumor cell line. The experiment is described as follows: MTT proliferation assay, DU-145. Type of experiment: cell-based, human. As to conditions: FIG. 1C. Here is the method:
(§1) Human tumor cell lines were obtained from the American Type Culture Collection, the National Cancer Institute or from the originator as a kind gift. All cells were grown in RPMI 1640 (Invitrogen) medium containing 10% fetal bovine serum and 2 mM L-glutamine.
(§2) Logarithmically growing cells cultured in T75 flasks (Falcon) were harvested and inoculated into 96 well microtiter plates in 100 μL at plating densities ranging from 2,000 to 5,000 cells/well depending on the doubling time of individual cell lines. After cell inoculation, the microtiter plates are incubated at 37° C., 5% CO2, 95% air and 100% relative humidity for 24 h prior to addition of drug.
(§3) After 24 h, one plate of each cell line is developed with MTT (3-4,5-Dimethylthiazol-2-yl)-2,5-diphenyltetrazolium bromide, yellow), which is reduced to purple formazan in the mitochondria of living cells. […] The absorbance of this colored solution can be quantified by measuring at a certain wavelength (usually between 500 and 600 nm) by a spectrophotometer. […] The d0 growth value for each cell line is later deducted from each of the readouts at termination of the experiment. Essentially the final readouts are normalized for baseline growth, which enables us direct deduction of growth inhibition parameters from the graphed data. […]
(§4) Two independent experiments were conducted and the IC50 concentrations calculated plus/minus standard deviation.
For orientation: Tetrazolium assays rely on reduction of a dye to a coloured formazan, in cell work by metabolically active cells.

Another experiment has as its system human tumor cell lines. The experiment is described as follows: MTT proliferation assay, human tumor cell lines. It is filed as cell-based. Conditions: H23, H460, DU-145; IC50 comparison. On the procedure: as §1, §2, §3, §4
Experiment [2] deals with H460 (lung) tumor cell line. The experiment is described as follows: MTT proliferation assay, H460. It is filed as cell-based, human. Conditions: FIG. 1B. On the procedure:
as §1, §2, §3, §4

For experiment [3], the system named is H23 (lung) tumor cell line. The experiment is described as follows: MTT proliferation assay, H23. It is filed as cell-based, human. As to conditions: FIG. 1A. On the procedure:
as §1, §2, §3, §4

The subject of experiment [4] is SF268 (glioblastoma) tumor cell line. The experiment is described as follows: MTT proliferation assay, SF268. It is filed as cell-based. As to conditions: Homo sapiens, SF-268, 120 h, 5 days. On the procedure: as §1, §2, §3, §4

With `CN(C)CC[C@H](CSc1ccccc1)Nc1ccc(S(=O)(=O)NC(=O)c2ccc(N3CCN(Cc4ccccc4-c4ccc(Cl)cc4)CC3)cc2)cc1[N+](=O)[O-]` [Abt-737], the “IC50 values (range in words)” value in experiment [1], in experiment [2] and in experiment [3] was “high μM range” each time. Besides, the “potency compared with VMD in the same cell lines” value with human tumor cell lines is on record as “at least two-order of magnitude less potent”.
A word on the IC50: it is the point on the concentration scale where inhibition reaches its midpoint. Take `O=C(O)c1ccc(N2CCN(CCCn3c4c(n[n+]3[O-])C(=O)c3ccccc3C4=O)CC2)cc1` [Compound 101]: in experiment [4], the IC50 stood at 330 nM.
